This note sets out measurements from BindingDB's records for doi:10.1016/j.bmc.2005.09.050 (Lund University, 2006).

As a reminder, the Kd is the concentration at which binding is half-saturated.

Holding throughout (assay): Fluorescence Polarization Assay
Assay [1] concerns the target Galectin-1 (Homo sapiens, UniProt P09382). As to conditions: pH 7.2; 24 °C. Here is the method: (§1) In fluorescence polarization measurements, a fluorescent probe was excited with plane-polarized light and the degree of polarization remaining in the emitted light is measured. When the probe is bound to protein, it rotates slower than when free, and the remaining fluorescence polarization is higher. The fluorescent anisotropy value for a probe-protein mixture is the average of the value for bound and free probe. For the direct binding asaay, the data (anisotropy, A in mA vs galectin concentration, [G] in uM) were fitted to a simplified formula to obtain Kd.

Assay [2] deals with Galectin-3 (Homo sapiens, UniProt P17931). As to conditions: pH 7.2; 24 °C. How it is done:
as §1

Assay [3] addresses Galectin-7 (Homo sapiens, UniProt P47929). Here is the method: as §1
The target in assay [4] is T1, Galectin-8 (Homo sapiens, UniProt O00214).
T1 sequence (O00214 whole entry): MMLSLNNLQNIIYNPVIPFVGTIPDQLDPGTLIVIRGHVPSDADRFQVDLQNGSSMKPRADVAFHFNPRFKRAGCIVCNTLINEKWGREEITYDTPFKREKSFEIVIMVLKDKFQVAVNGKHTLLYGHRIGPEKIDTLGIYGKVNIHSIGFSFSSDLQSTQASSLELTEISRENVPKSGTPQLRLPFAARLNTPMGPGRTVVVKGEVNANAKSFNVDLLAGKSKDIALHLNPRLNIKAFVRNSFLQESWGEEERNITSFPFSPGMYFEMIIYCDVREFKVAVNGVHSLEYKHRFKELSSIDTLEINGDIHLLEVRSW
How it is done: as §1

Assay [5] addresses Galectin-9 (Homo sapiens, UniProt O00182). Here is the method:
as §1

The structures appear in SMILES notation. A value given as a limit tells only on which side of the number the result lay.

Chain of Galectin-9 (O00182 whole entry): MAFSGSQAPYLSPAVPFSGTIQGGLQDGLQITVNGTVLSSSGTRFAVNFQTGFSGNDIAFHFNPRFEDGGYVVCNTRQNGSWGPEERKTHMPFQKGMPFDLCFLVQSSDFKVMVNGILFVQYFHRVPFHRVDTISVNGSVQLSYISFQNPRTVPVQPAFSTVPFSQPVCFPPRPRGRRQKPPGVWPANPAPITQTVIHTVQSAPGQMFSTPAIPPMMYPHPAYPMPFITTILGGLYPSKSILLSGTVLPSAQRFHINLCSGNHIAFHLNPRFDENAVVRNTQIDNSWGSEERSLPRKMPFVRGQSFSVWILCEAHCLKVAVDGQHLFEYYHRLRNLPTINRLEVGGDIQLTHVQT
Chain of Galectin-1 (P09382 whole entry): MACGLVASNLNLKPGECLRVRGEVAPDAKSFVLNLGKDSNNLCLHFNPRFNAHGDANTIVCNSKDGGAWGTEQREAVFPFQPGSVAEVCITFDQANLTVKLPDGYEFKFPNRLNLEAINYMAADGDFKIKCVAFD
Chain of Galectin-3 (P17931 whole entry): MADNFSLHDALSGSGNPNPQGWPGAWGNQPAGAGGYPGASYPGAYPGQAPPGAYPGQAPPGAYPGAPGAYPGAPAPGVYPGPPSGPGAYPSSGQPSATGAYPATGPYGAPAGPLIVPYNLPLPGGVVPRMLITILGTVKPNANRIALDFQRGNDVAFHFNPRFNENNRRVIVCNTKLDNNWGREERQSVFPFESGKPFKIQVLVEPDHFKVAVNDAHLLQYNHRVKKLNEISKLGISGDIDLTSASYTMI
Chain of Galectin-7 (P47929 whole entry): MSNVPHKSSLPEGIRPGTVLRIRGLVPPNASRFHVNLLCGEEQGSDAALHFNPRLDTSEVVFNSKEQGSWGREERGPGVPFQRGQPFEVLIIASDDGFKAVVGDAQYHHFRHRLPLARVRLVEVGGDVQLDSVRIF

Take `CNC(=S)N[C@H]1[C@@H](O)[C@@H](CO)O[C@@H](O[C@H]2[C@H](O)[C@@H](NC(C)=O)[C@H](OC)O[C@@H]2CO)[C@@H]1O` [N-[(2R,3R,4R,5S,6R)-5-{[(2S,3R,4S,5R,6R)-3,5-dihydroxy-6-(hydroxymethyl)-4-[(methylcarbamothioyl)amino]oxan-2-yl]oxy}-4-hydroxy-6-(hydroxymethyl)-2-methoxyoxan-3-yl]acetamide]: the Kd in assay [1] is 49 µM; in assay [2] it was 38 µM; in assay [3], 65 µM; in assay [4], greater than 3 mM; in assay [5], 110 µM.
Regarding `CO[C@@H]1O[C@H](CO)[C@@H](O[C@@H]2O[C@H](CO)[C@H](O)[C@H](NC(=S)NCc3ccccc3)[C@H]2O)[C@H](O)[C@H]1NC(C)=O` [N-[(2R,3R,4R,5S,6R)-5-{[(2S,3R,4S,5R,6R)-4-[(benzylcarbamothioyl)amino]-3,5-dihydroxy-6-(hydroxymethyl)oxan-2-yl]oxy}-4-hydroxy-6-(hydroxymethyl)-2-methoxyoxan-3-yl]acetamide], the results for the dissociation constant (Kd) in assay [1] and in assay [2] were 35 µM and 15 µM, respectively.
For `CO[C@@H]1O[C@H](CO)[C@@H](O[C@@H]2O[C@H](CO)[C@H](O)[C@H](NC(=S)NCc3cccnc3)[C@H]2O)[C@H](O)[C@H]1NC(C)=O` [N-[(2R,3R,4R,5S,6R)-5-{[(2S,3R,4S,5R,6R)-3,5-dihydroxy-6-(hydroxymethyl)-4-{[(pyridin-3-ylmethyl)carbamothioyl]amino}oxan-2-yl]oxy}-4-hydroxy-6-(hydroxymethyl)-2-methoxyoxan-3-yl]acetamide], the Kd came to 43 µM in assay [1], 35 µM in assay [2], 23 µM in assay [3] and 47 µM in assay [5].
Consider `CO[C@@H]1O[C@H](CO)[C@@H](O[C@@H]2O[C@H](CO)[C@H](O)[C@H](O)[C@H]2O)[C@H](O)[C@H]1NC(C)=O` [N-[(2R,3R,4R,5S,6R)-4-hydroxy-6-(hydroxymethyl)-2-methoxy-5-{[(2S,3R,4S,5R,6R)-3,4,5-trihydroxy-6-(hydroxymethyl)oxan-2-yl]oxy}oxan-3-yl]acetamide], for which the dissociation constant (Kd) came to 70 µM in assay [1]; 67 µM in assay [2]; 490 µM in assay [3]; 0.7 mM in assay [4]; 500 µM in assay [5].
In the case of `C=CCNC(=S)N[C@H]1[C@@H](O)[C@@H](CO)O[C@@H](O[C@H]2[C@H](O)[C@@H](NC(C)=O)[C@H](OC)O[C@@H]2CO)[C@@H]1O` [N-[(2R,3R,4R,5S,6R)-5-{[(2S,3R,4S,5R,6R)-3,5-dihydroxy-6-(hydroxymethyl)-4-[(prop-2-en-1-ylcarbamothioyl)amino]oxan-2-yl]oxy}-4-hydroxy-6-(hydroxymethyl)-2-methoxyoxan-3-yl]acetamide], the Kd in assay [1] was 34 µM; in assay [2], 52 µM; in assay [3], 100 µM; in assay [4], greater than 3 mM; in assay [5], 97 µM.
With `CCN(CC)C(=S)N[C@H]1[C@@H](O)[C@@H](CO)O[C@@H](O[C@H]2[C@H](O)[C@@H](NC(C)=O)[C@H](OC)O[C@@H]2CO)[C@@H]1O` [N-[(2R,3R,4R,5S,6R)-5-{[(2S,3R,4S,5R,6R)-4-[(diethylcarbamothioyl)amino]-3,5-dihydroxy-6-(hydroxymethyl)oxan-2-yl]oxy}-4-hydroxy-6-(hydroxymethyl)-2-methoxyoxan-3-yl]acetamide], the Kd is 46 µM in assay [1]; 43 µM in assay [2]; 180 µM in assay [3]; greater than 3 mM in assay [4]; 280 µM in assay [5].
With `CO[C@@H]1O[C@H](CO)[C@@H](O[C@@H]2O[C@H](CO)[C@H](O)[C@H](NC(=S)NCCCO)[C@H]2O)[C@H](O)[C@H]1NC(C)=O` [N-[(2R,3R,4R,5S,6R)-5-{[(2S,3R,4S,5R,6R)-3,5-dihydroxy-6-(hydroxymethyl)-4-{[(3-hydroxypropyl)carbamothioyl]amino}oxan-2-yl]oxy}-4-hydroxy-6-(hydroxymethyl)-2-methoxyoxan-3-yl]acetamide], the Kd in assay [1] is 23 µM; in assay [2], 65 µM; in assay [3] it was 150 µM; in assay [4], greater than 3 mM; in assay [5], 92 µM.
For `CO[C@@H]1O[C@H](CO)[C@@H](O[C@@H]2O[C@H](CO)[C@H](O)[C@H](NC(=S)N3CCOCC3)[C@H]2O)[C@H](O)[C@H]1NC(C)=O` [N-[(2R,3R,4R,5S,6R)-5-{[(2S,3R,4S,5R,6R)-3,5-dihydroxy-6-(hydroxymethyl)-4-[(morpholin-4-ylmethanethioyl)amino]oxan-2-yl]oxy}-4-hydroxy-6-(hydroxymethyl)-2-methoxyoxan-3-yl]acetamide], the dissociation constant (Kd) in assay [1] was 160 µM; in assay [2], 69 µM.
For `CO[C@@H]1O[C@H](CO)[C@@H](O[C@@H]2O[C@H](CO)[C@H](O)[C@H](NC(=S)Nc3ccccc3)[C@H]2O)[C@H](O)[C@H]1NC(C)=O` [N-[(2R,3R,4R,5S,6R)-5-{[(2S,3R,4S,5R,6R)-3,5-dihydroxy-6-(hydroxymethyl)-4-[(phenylcarbamothioyl)amino]oxan-2-yl]oxy}-4-hydroxy-6-(hydroxymethyl)-2-methoxyoxan-3-yl]acetamide], the dissociation constant Kd in assay [1] is 45 µM; in assay [2], 40 µM; in assay [3], 110 µM; in assay [4], greater than 3 mM; in assay [5] it was 100 µM.
Regarding `CO[C@@H]1O[C@H](CO)[C@@H](O[C@@H]2O[C@H](CO)[C@H](O)[C@H](NC(=S)NCCO)[C@H]2O)[C@H](O)[C@H]1NC(C)=O` [N-[(2R,3R,4R,5S,6R)-5-{[(2S,3R,4S,5R,6R)-3,5-dihydroxy-4-{[(2-hydroxyethyl)carbamothioyl]amino}-6-(hydroxymethyl)oxan-2-yl]oxy}-4-hydroxy-6-(hydroxymethyl)-2-methoxyoxan-3-yl]acetamide], the equilibrium dissociation constant (Kd) in assay [1] was 49 µM; in assay [2] it was 74 µM; in assay [3], 130 µM; in assay [4], 0.5 mM; in assay [5] it was 120 µM.
Consider `CO[C@@H]1O[C@H](CO)[C@@H](O[C@@H]2O[C@H](CO)[C@H](O)[C@H](NC(=S)NC3CCCCC3)[C@H]2O)[C@H](O)[C@H]1NC(C)=O` [N-[(2R,3R,4R,5S,6R)-5-{[(2S,3R,4S,5R,6R)-4-[(cyclohexylcarbamothioyl)amino]-3,5-dihydroxy-6-(hydroxymethyl)oxan-2-yl]oxy}-4-hydroxy-6-(hydroxymethyl)-2-methoxyoxan-3-yl]acetamide], for which the Kd is 40 µM in assay [1]; 57 µM in assay [2]; 24 µM in assay [3]; 0.65 mM in assay [4]; 80 µM in assay [5].
For `CO[C@@H]1O[C@H](CO)[C@@H](O[C@@H]2O[C@H](CO)[C@H](O)[C@H](NC(=S)N[C@H]3[C@@H](O)[C@@H](CO)O[C@@H](O[C@H]4[C@H](O)[C@@H](NC(C)=O)[C@H](OC)O[C@@H]4CO)[C@@H]3O)[C@H]2O)[C@H](O)[C@H]1NC(C)=O` [N-[(2R,3R,4R,5S,6R)-5-{[(2S,3R,4S,5R,6R)-4-({[(2S,3R,4S,5R,6R)-2-{[(2R,3S,4R,5R,6R)-5-acetamido-4-hydroxy-2-(hydroxymethyl)-6-methoxyoxan-3-yl]oxy}-3,5-dihydroxy-6-(hydroxymethyl)oxan-4-yl]carbamothioyl}amino)-3,5-dihydroxy-6-(hydroxymethyl)oxan-2-yl]oxy}-4-hydroxy-6-(hydroxymethyl)-2-methoxyoxan-3-yl]acetamide], the equilibrium dissociation constant (Kd) was 58 µM in assay [1]; 160 µM in assay [2]; 170 µM in assay [3]; greater than 3 mM in assay [4]; 240 µM in assay [5].
With `CO[C@@H]1O[C@H](CO)[C@@H](O[C@@H]2O[C@H](CO)[C@H](O)[C@H](NC(N)=S)[C@H]2O)[C@H](O)[C@H]1NC(C)=O` [N-[(2R,3R,4R,5S,6R)-5-{[(2S,3R,4S,5R,6R)-4-(carbamothioylamino)-3,5-dihydroxy-6-(hydroxymethyl)oxan-2-yl]oxy}-4-hydroxy-6-(hydroxymethyl)-2-methoxyoxan-3-yl]acetamide], the Kd is 43 µM in assay [1]; 65 µM in assay [2]; 170 µM in assay [3]; greater than 3 mM in assay [4]; 76 µM in assay [5].
Regarding `CCCCNC(=S)N[C@H]1[C@@H](O)[C@@H](CO)O[C@@H](O[C@H]2[C@H](O)[C@@H](NC(C)=O)[C@H](OC)O[C@@H]2CO)[C@@H]1O` [N-[(2R,3R,4R,5S,6R)-5-{[(2S,3R,4S,5R,6R)-4-[(butylcarbamothioyl)amino]-3,5-dihydroxy-6-(hydroxymethyl)oxan-2-yl]oxy}-4-hydroxy-6-(hydroxymethyl)-2-methoxyoxan-3-yl]acetamide], the equilibrium dissociation constant (Kd) in assay [1] was 23 µM; in assay [2], 23 µM; in assay [3], 130 µM; in assay [4], greater than 3 mM; in assay [5], 69 µM.
